Assay results reported in patent publication US10800781B2, “Compounds useful as inhibitors of ATR kinase” (Vertex Pharmaceuticals Incorporated, priority 2014, dated 2020).

Columns and labels:
full-length ATR = molecular target: T1, full-length ATR (Homo sapiens, UniProt Q13535); test: ATR inhibition assay (radioactive-phosphate incorporation); format: biochemical; conditions: 5 nM full-length ATR, 10 μM ATP, 800 μM target peptide, 25° C.; read-out: Ki values (Ki(app)) for inhibiting ATR
T1 construct: Assays are carried out at 25° C. in the presence of 5 nM full-length ATR
T1 sequence (Q13535 whole entry): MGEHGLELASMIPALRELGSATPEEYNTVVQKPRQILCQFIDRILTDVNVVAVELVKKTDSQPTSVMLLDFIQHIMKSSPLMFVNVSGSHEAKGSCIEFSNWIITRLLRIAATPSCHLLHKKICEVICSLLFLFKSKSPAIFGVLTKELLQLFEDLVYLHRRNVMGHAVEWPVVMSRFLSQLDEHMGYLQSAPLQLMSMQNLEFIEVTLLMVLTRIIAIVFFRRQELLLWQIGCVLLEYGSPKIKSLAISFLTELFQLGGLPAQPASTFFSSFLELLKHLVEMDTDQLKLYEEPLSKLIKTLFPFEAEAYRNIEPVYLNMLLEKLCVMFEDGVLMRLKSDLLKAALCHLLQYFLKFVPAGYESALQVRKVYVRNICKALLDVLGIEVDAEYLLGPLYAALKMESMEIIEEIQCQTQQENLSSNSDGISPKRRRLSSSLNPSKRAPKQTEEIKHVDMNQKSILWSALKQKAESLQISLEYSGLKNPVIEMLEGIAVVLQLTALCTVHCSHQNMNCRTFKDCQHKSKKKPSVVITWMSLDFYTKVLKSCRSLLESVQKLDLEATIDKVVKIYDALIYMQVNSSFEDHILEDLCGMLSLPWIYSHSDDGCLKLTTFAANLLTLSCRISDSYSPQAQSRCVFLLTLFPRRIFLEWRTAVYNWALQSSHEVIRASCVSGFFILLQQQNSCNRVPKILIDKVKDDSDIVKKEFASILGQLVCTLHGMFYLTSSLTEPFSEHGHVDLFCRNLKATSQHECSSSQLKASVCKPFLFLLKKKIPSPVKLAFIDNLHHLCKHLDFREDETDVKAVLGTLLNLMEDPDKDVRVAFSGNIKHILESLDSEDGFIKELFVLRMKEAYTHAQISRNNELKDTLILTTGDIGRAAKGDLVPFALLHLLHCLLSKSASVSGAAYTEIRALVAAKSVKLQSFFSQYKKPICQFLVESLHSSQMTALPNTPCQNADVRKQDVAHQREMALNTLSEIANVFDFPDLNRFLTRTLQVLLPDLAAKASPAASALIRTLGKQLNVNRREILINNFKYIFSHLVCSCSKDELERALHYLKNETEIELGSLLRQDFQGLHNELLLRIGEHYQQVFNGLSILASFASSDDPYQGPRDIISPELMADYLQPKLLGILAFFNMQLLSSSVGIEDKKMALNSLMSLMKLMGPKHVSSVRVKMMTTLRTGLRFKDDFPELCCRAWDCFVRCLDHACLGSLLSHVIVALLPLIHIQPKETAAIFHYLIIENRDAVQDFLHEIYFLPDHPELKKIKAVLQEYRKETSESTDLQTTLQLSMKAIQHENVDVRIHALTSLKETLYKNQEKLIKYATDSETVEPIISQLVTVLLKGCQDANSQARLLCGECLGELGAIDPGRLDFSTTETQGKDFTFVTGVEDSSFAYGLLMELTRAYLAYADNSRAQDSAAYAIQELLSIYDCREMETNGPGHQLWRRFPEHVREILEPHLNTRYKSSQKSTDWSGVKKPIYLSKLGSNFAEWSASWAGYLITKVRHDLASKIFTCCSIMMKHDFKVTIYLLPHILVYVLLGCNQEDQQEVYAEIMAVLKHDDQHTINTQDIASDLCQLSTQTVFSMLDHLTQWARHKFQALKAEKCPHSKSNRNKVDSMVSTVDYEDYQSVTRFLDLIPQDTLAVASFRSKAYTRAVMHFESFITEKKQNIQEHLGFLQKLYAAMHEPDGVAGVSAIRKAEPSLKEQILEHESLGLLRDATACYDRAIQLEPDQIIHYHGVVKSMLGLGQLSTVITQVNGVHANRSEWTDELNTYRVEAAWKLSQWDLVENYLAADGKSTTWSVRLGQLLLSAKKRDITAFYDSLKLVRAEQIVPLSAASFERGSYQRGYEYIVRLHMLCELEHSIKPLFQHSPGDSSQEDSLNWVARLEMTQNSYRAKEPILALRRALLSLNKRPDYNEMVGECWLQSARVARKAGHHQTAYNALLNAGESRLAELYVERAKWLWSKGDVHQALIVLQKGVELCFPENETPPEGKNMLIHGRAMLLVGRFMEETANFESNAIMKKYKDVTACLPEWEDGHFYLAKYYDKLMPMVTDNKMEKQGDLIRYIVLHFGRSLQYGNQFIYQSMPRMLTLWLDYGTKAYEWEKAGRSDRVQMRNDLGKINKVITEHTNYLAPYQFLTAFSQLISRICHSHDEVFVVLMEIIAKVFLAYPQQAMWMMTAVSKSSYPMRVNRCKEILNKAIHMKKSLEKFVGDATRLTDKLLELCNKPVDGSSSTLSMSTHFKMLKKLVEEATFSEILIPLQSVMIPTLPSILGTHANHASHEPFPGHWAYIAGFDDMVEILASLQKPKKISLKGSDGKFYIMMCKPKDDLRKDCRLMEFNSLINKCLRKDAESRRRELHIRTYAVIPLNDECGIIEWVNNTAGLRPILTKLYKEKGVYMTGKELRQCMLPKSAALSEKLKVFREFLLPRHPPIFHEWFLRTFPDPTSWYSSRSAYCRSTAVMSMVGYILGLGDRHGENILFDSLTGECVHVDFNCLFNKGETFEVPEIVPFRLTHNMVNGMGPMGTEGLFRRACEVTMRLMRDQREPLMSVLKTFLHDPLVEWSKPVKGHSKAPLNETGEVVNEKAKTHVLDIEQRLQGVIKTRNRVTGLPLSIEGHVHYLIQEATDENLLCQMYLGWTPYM
Procedure: Compounds can be screened for their ability to inhibit ATR kinase using a radioactive-phosphate incorporation assay. Assays are carried out in a mixture of 50 mM Tris/HCl (pH 7.5), 10 mM MgCl2 and 1 mM DTT. Final substrate concentrations are 10 μM [γ-33P]ATP (3mCi 33P ATP/mmol ATP, Perkin Elmer) and 800 μM target peptide (ASELPASQPQPFSAKKK).
Assays are carried out at 25° C. in the presence of 5 nM full-length ATR. An assay stock buffer solution is prepared containing all of the reagents listed above, with the exception of ATP and the test compound of interest. 13.5 μL of the stock solution is placed in a 96 well plate followed by addition of 2 μL of DMSO stock containing serial dilutions of the test compound (typically starting from a final concentration of 15 μM with 3-fold serial dilutions) in duplicate (final DMSO concentration 7%). The plate is pre-incubated for 10 minutes at 25° C. and the reaction initiated by addition of 15 μL [γ-33P]ATP (final concentration 10 μM).
The reaction is stopped after 24 hours by the addition of 30 μL 0.1M phosphoric acid containing 2 mM ATP. […]
After removing mean background values for all of the data points, Ki(app) data are calculated from non-linear regression analysis of the initial rate data using the Prism software package (GraphPad Prism version 3.0cx for Macintosh, GraphPad Software, San Diego Calif., USA).

[1] = tested on: HCT116 colorectal cancer cells; test: Cisplatin sensitization assay, 96 h cell viability (MTS); format: cell-based; conditions: compound and Cisplatin added simultaneously
Procedure: Compounds can be screened for their ability to sensitize HCT116 colorectal cancer cells to Cisplatin using a 96 h cell viability (MTS) assay. […] Compounds and Cisplatin are then both added simultaneously to the cell media in 2-fold serial dilutions from a top final concentration of 10 μM as a full matrix of concentrations in a final cell volume of 200 μl, and the cells are then incubated at 37° C. in 5% CO2. After 96 h, 40 μl of MTS reagent (Promega G358a) is added to each well and the cells are incubated for 1 h at 37° C. in 5% CO2. Finally, absorbance is measured at 490 nm using a SpectraMax Plus 384 reader (Molecular Devices) and the concentration of compound required to reduce the IC50 of Cisplatin alone by at least 3-fold (to 1 decimal place) can be reported.

Ki (full-length ATR): < 1000 nM
SMILES: Cn1cncc1-c1c(F)cncc1NC(=O)c1c(N)nn2cc(F)cnc12 [Compound I-1, 2-amino-6-fluoro-N-(5-fluoro-4-(1-methyl-1H-imidazol-5-yl)pyridin-3-yl)pyrazolo[1,5-a]pyrimidine-3-carboxamide]
Cisplatin sensitization values (concentration of compound required to reduce the IC50 of Cisplatin alone by at least 3-fold) [1]: < 200 nM
